# Measurements from paper PMC6801510, “A2A Receptor Homodimer-Disrupting Sequence Efficiently Delivered by a Protease-Resistant, Cyclic CPP Vector” (International Journal of Molecular Sciences, 2019).
# Ends that are not written are not given here.
# B1: Peptide 1, linear Tat-based TM5 (peptide)
# peptide: MNYMVYFNFFACVLVPLLLMLGVYLYGRKKRRQRRR-NH2
# notes: TM5 helical domain of the adenosine A2A receptor (A2AR); also called linear TM5-Tat; linear peptide 1; source: synthetic peptide (Fmoc solid-phase synthesis, purified by preparative HPLC)
# B2: Peptide 2, cyclic Tat-like TM5 (peptide)
# peptide: MNYMVYFNFFACVLVPLLLMLGVYLKRRRGRKKRRE
# modifications: also: cyclic (mode of cyclisation not given here)
# notes: also called TM5-cyclic Tat-like; cyclic version 2; source: synthetic peptide (Fmoc solid-phase synthesis, on-resin cyclization, purified by preparative HPLC)
# Assays:
# [1] = molecular target: T1, A2AR homodimer (A2A-cYFP / A2A-nYFP) in HEK-293T cells (Homo sapiens, UniProt P29274); assay: Bimolecular fluorescence complementation (BiFC) assay of A2A receptor homodimer disruption; format: cell-based; details: 4 h incubation with peptide; for Effect on the control BiFC fluorescence (A2AR dimerization): HEK-293T cells, A2A-cYFP / A2A-nYFP, versus fluorescence of the dimer in the absence of peptides
# T1 construct: expressed in transfected cells; host or cells: HEK-293T
# Description: For bimolecular fluorescence complementation (BiFC) assays: cells were transfected using cDNAs coding for two versions of the receptor. As described elsewhere [18, 27], two cDNAs were prepared: each encoding the receptor fused to one of the two halves of the super yellow fluorescent protein (sYFP). […] Each half of the fluorescent protein is unable, by itself, to emit fluorescence, which is only feasible after complementation of the two halves of the sYFP.
# To address homodimer disruption, bimolecular fluorescence complementation assays were performed using HEK-293T cells transfected with equal amounts of cDNAs (0.75 µg cDNA each) for A2A-cYFP and A2A-nYFP fusion proteins (intramural production, see [17, 18, 26, 28]). […] Fluorescence was recorded in a Fluostar Optima fluorimeter (BMG Labtechnologies, Offenburg, Germany). […] Values of fluorescence obtained in the absence or presence of peptides are given as mean ± standard error of the mean (SEM) of 16 independent experiments in duplicates.
# trypsin = assay: Trypsin digestion followed by HPLC; format: in vitro ADME; details: trypsin (isolated protease), after 30 min, peptide:trypsin 100:1, peptide 1 µg/µL, 50 mM ammonium bicarbonate buffer pH 8.2, 37 °C, reverse-phase HPLC-MS read-out, assays in duplicate, read-out: Decrease in the area of the starting HPLC peak on trypsin treatment
# Text: It was of particular interest to ascertain how the internal cyclization and D-amino acid modifications influenced the lifespan of the partially cyclic structures. To this end, peptides 1 and 2, both with a TM5 disruptor sequence fused to a linear or a cyclic CPP motif, respectively, were inspected by high-performance liquid chromatography (HPLC) upon trypsin treatment. Analysis confirmed the vulnerability of fully linear 1 (Figure 3), with a 90% decrease in the area of the starting peak after only 30 min (Figure 4), and the appearance of new peaks identified by mass spectrometry (MS) (Table 2).
# A 1000 µg/1000 µL trypsin solution (Thermo Fisher Scientific, Cornellà de Llobregat, Spain) […]) was prepared by suspending the lyophilized enzyme in 50 mM ammonium bicarbonate buffer, pH 8.2. Peptides dissolved in the same buffer (1 µg/µL) were incubated with trypsin (peptide:trypsin ratio = 100:1) for 24 h at 37 °C. Samples were collected at various time points and digestion was stopped by addition of 20% (v/v) of 0.5% formic acid in H2O. Samples were stored at −20 °C until analyzed by reverse-phase HPLC-MS.
# [2] = molecular target: T2, adenosine A2A receptor, fused to one half of super yellow fluorescent protein (A2A-cYFP or A2A-nYFP), BiFC … (UniProt P29274 1-412); assay: split reporter (BiFC, NanoBiT); competition: HEK-293T cells expressing A2A-cYFP and A2A-nYFP treated with TM5 peptides 1 or 2 for 4 h before the complementation assay, in supplemented DMEM; dose-dependent loss of YFP fluorescence; details: one partner purified
# T2 construct: source: HEK-293T, transfected, in living cells
# T2 sequence (P29274 whole entry, the tested form may be a part): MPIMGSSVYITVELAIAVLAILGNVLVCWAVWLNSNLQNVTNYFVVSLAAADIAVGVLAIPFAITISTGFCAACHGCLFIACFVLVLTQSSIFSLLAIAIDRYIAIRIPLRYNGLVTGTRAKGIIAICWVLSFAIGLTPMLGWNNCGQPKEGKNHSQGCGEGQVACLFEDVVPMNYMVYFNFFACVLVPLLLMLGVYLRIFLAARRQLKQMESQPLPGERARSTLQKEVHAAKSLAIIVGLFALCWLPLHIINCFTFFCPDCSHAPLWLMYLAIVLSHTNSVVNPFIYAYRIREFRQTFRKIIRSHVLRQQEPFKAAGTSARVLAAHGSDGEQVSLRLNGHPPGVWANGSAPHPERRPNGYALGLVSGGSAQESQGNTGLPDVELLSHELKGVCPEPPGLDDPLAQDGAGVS
# T1 sequence (P29274 whole entry): as the sequence (P29274 whole entry, the tested form may be a part) above
Molecule,Effect on the control BiFC fluorescence (A2AR dimerization) [1],"metabolised at 0.5 h, 1 µg/µL (trypsin)","IC50 ([1]; HEK-293T cells transfected with A2A-cYFP and A2A-nYFP, 48 h post-transfection, supplemented DMEM, Figure 2B, mean +/- SD, n = 12 in duplicates, read-out: IC50 for reduction of BiFC (sYFP complementation) fluorescence of the A2AR homodimer)",IC50 [2]
MNYMVYFNFFACVLVPLLLMLGVYLYGRKKRRQRRR-NH2 [Peptide 1],affected the fluorescence of the control in a dose-dependent manner,90%,–,–
"MNYMVYFNFFACVLVPLLLMLGVYL[KrRrGrKkRrE]-amide (sidechain bridge or staple) [Peptide 2, Cyclic Tat-like TM5: A2AR TM5 fused to cyclic KrRrGrKkRrE motif, N-terminus acetylated]",affected the fluorescence of the control in a dose-dependent manner,–,350 nM,–
B1,–,–,–,520 nM
B2,–,–,–,350 nM
